The source of these data is US12637425B2, “Compounds and formulations for treating ophthalmic diseases” (Visus Therapeutics, Inc., priority 2020, dated 2026).

As usually defined, the inhibition is the relative decrease from the control value, in per cent. As usually defined, the IC50 is the concentration that gives 50% inhibition.

In this experiment the target is T1, Recombinant cryAB(R120G) protein (Homo sapiens, UniProt P02511, R120G).
T1 sequence (P02511 1-175 R120G): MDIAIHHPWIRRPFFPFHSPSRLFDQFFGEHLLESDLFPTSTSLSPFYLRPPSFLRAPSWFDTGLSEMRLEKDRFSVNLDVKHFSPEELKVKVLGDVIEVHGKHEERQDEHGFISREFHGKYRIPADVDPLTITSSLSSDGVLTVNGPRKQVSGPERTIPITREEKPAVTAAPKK
As to the kind of experiment: Kinetic turbidity aggregation assay of recombinant cryAB(R120G). Type of experiment: biochemical. Particulars: for inhibition at 25 µM / % Inhibition of Protein Aggregation, 25 μM cmpd: 25 μM compound; for inhibition at 25 µM: read-out: % Inhibition of Protein Aggregation, 25 μM cmpd; for inhibition at 100 µM: read-out: % Inhibition of Protein Aggregation, 100 μM cmpd; for inhibition at 400 µM: 400 μM compound, read-out: % Inhibition of Protein Aggregation, 400 μM cmpd; for IC50: inhibition of cryAB(R120G) protein aggregation. How it is done:
Example A-1: Kinetic Turbidity Aggregation Assay of Recombinant cryAB(R120)
Recombinant cryAB(R120G) protein was diluted to 100 μM in assay buffer (50 mM Tris, 100 mM NaCl, 5 mM DTT, 0.01% Triton X-100, 0.05% PEG-8000). Compounds were dissolved in DMSO at 10 mM then typically diluted to 2.5 mM in DMSO and serially diluted 2-fold as necessary. To a 384-well black microplate in quadruplicate was added 81 μL assay buffer, followed by 15 μL protein solution, and 4 μL compound to give a final concentration of 15 μM cryAB(R120G) protein in 4% DMSO. […] N.D. is not determined.

The mark [1] stands for this setting: 15 μM cryAB(R120G), 42° C., absorbance at 550 nm.
[2] abbreviates: 100 μM compound, 15 μM cryAB(R120G), 42° C., absorbance at 550 nm.

As for `Cc1ccc2c(C(CNS(=O)(=O)c3ccc4cc[nH]c4c3)N(C)C)cn(C)c2c1` (centres unmarked) [Compound 100, N-(2-(1,6-dimethyl-1H-indol-3-yl)-2-(dimethylamino)ethyl)-1H-indole-6-sulfonamide], under setting [1], the inhibition at 25 µM stood at 61.7%. Further, the inhibition at 100 µM under setting [2] was determined as 99.9%.

For `CN(C)C(CNS(=O)(=O)c1ccc2cc[nH]c2c1)c1cn(C)c2ccc(F)cc12` (centres unmarked) [Compound 20, N-(2-(dimethylamino)-2-(5-fluoro-1-methyl-1H-indol-3-yl)ethyl)-1H-indole-6-sulfonamide], under setting [1], the inhibition at 25 µM was 49% and the inhibition at 400 µM worked out at 93.4%. In addition, the inhibition at 100 µM under setting [2] was 99.2%.

Take `CN(C)C(CNS(=O)(=O)c1ccc2cc[nH]c2c1)c1ccc2[nH]ncc2c1` (centres unmarked) [Compound 3, N-(2-(dimethylamino)-2-(1H-indazol-5-yl)ethyl)-1H-indole-6-sulfonamide]: under setting [1], the inhibition at 25 µM was found to be 58% and the inhibition at 400 µM was 99.1%. In addition, the inhibition at 100 µM under setting [2] amounted to 83.7%.

`CN(C)C(CNS(=O)(=O)c1ccc2cc[nH]c2c1)c1cn(CC2COC2)c2ccccc12` (centres unmarked) [Compound 70, N-(2-(dimethylamino)-2-(1-(oxetan-3-ylmethyl)-1H-indol-3-yl)ethyl)-1H-indole-6-sulfonamide]: the inhibition at 25 µM under setting [1] was 76%. The inhibition at 100 µM under setting [2] worked out at 99.6%.

For `CN(Cc1cncs1)[C@@H](CNS(=O)(=O)c1ccc2cc[nH]c2c1)c1cn(C)c2ccccc12` [Compound 87, (R)-N-(2-(methyl(thiazol-5-ylmethyl)amino)-2-(1-methyl-1H-indol-3-yl)ethyl)-1H-indole-6-sulfonamide], under setting [1], the inhibition at 25 µM amounted to 47%. In addition, the inhibition at 100 µM under setting [2] is 83.2%.

With `Cn1cc(C(CNS(=O)(=O)c2ccc3[nH]ccc3c2)N2CCCC2)c2ccccc21` (centres unmarked) [Compound 26, N-(2-(1-methyl-1H-indol-3-yl)-2-(pyrrolidin-1-yl)ethyl)-1H-indole-5-sulfonamide], under setting [1], the inhibition at 25 µM was -4%. In addition, under setting [2], the inhibition at 100 µM came out at 90.6%.

As for `Cn1cc(C(CNS(=O)(=O)c2ccc3cc[nH]c3c2)N2CCN(CCO)CC2)c2ccccc21` (centres unmarked) [Compound 46, N-(2-(4-(2-hydroxyethyl)piperazin-1-yl)-2-(1-methyl-1H-indol-3-yl)ethyl)-1H-indole-6-sulfonamide], the inhibition at 25 µM under setting [1] is -4%. The inhibition at 100 µM under setting [2] turned out to be 63.1%.

Turning to `Cn1cc(C(CNS(=O)(=O)c2ccc3cc[nH]c3c2)N2CC[C@H](O)C2)c2ccccc21` (stereo partly drawn) [Compound 43, N-(2-((S)-3-hydroxypyrrolidin-1-yl)-2-(1-methyl-1H-indol-3-yl)ethyl)-1H-indole-6-sulfonamide], under setting [1], the inhibition at 25 µM was 20%. Besides, the inhibition at 100 µM under setting [2] was found to be 98.6%.

Turning to `CC(C)n1cc(C(CNS(=O)(=O)c2cccc3[nH]ccc23)N(C)C)c2ccccc21` (centres unmarked) [Compound 13, N-(2-(dimethylamino)-2-(1-isopropyl-1H-indol-3-yl)ethyl)-1H-indole-4-sulfonamide], under setting [1], the inhibition at 25 µM was -6% and the inhibition at 400 µM amounted to 94.7%. The inhibition at 100 µM under setting [2] stood at 32.7%.

As for `Cn1cc([C@H](CNS(=O)(=O)c2ccc3cc[nH]c3c2)NCc2cncs2)c2ccccc21` [Compound 85, (R)-N-(2-(1-methyl-1H-indol-3-yl)-2-((thiazol-5-ylmethyl)amino)ethyl)-1H-indole-6-sulfonamide], the inhibition at 25 µM under setting [1] amounted to 37%. Moreover, the inhibition at 100 µM under setting [2] is 84.4%.

Consider `CC(=O)N[C@@H]1CCN(C(CNS(=O)(=O)c2ccc3cc[nH]c3c2)c2cn(C)c3ccccc23)C1` (stereo partly drawn) [Compound 62, N-((3R)-1-(2-(1H-indole-6-sulfonamido)-1-(1-methyl-1H-indol-3-yl)ethyl)pyrrolidin-3-yl)acetamide], for which the inhibition at 25 µM under setting [1] is -39%. For the same compound, the inhibition at 100 µM under setting [2] is 53.1%.

`C[C@H]1CCCN1[C@@H](CNS(=O)(=O)c1ccc2cc[nH]c2c1)c1cn(C)c2ccccc12` [Compound 65, N-((R)-2-(1-methyl-1H-indol-3-yl)-2-((S)-2-methylpyrrolidin-1-yl)ethyl)-1H-indole-6-sulfonamide]: the inhibition at 25 µM under setting [1] was found to be 93%. In addition, the inhibition at 100 µM under setting [2] was determined as 99.7%.

For `Cn1ccc2ccc(S(=O)(=O)NCC(c3cn(C)c4ccccc34)N3CCCC3)cc21` (centres unmarked) [Compound 33, 1-methyl-N-(2-(1-methyl-1H-indol-3-yl)-2-(pyrrolidin-1-yl)ethyl)-1H-indole-6-sulfonamide], the inhibition at 25 µM under setting [1] turned out to be 27%. Further, the inhibition at 100 µM under setting [2] amounted to 82.8%.

For `Cn1cc(C(CNS(=O)(=O)c2cccc3[nH]ccc23)N2CCCC2)c2ccccc21` (centres unmarked) [Compound 28, N-(2-(1-methyl-1H-indol-3-yl)-2-(pyrrolidin-1-yl)ethyl)-1H-indole-4-sulfonamide], the “% Inhibition of Protein Aggregation, 25 μM cmpd” value under setting [1] came to 7%. The “% Inhibition of Protein Aggregation, 100 μM cmpd” value under setting [2] came to 98.5%.

For `Cn1cc(C(CNS(=O)(=O)c2ccc3cc[nH]c3c2)N2CCOCC2)c2ccccc21` (centres unmarked) [Compound 30, N-(2-(1-methyl-1H-indol-3-yl)-2-morpholinoethyl)-1H-indole-6-sulfonamide], the inhibition at 25 µM under setting [1] was -28%. Further, the inhibition at 100 µM under setting [2] stood at 82%.

Turning to `CC(C)n1cc(C(CNS(=O)(=O)c2ccc3cc[nH]c3c2)N(C)C)c2ccccc21` (centres unmarked) [Compound 23, N-(2-(dimethylamino)-2-(1-isopropyl-1H-indol-3-yl)ethyl)-1H-indole-6-sulfonamide], the IC50 lay within 10 to 50 µM. Under setting [1], the “% Inhibition of Protein Aggregation, 25 μM cmpd” value is reported as 61% and the inhibition at 400 µM was determined as 100%. Also, under setting [2], the inhibition at 100 µM was found to be 99%.

Take `CCn1nc([C@@H](CNS(=O)(=O)c2ccc3cc[nH]c3c2)N2CCC2)c2ccccc21` [Compound 94, (R)-N-(2-(azetidin-1-yl)-2-(1-ethyl-1H-indazol-3-yl)ethyl)-1H-indole-6-sulfonamide]: the inhibition at 25 µM under setting [1] is 97.7%. For the same compound, under setting [2], the inhibition at 100 µM is 99.1%.

With `Cn1nc([C@H](CNS(=O)(=O)c2ccc3cc[nH]c3c2)N2CCCC2)c2ccccc21` [Compound 90, (S)-N-(2-(1-methyl-1H-indazol-3-yl)-2-(pyrrolidin-1-yl)ethyl)-1H-indole-6-sulfonamide], the inhibition at 25 µM under setting [1] was -15%. In addition, the inhibition at 100 µM under setting [2] worked out at 65.6%.

`Cn1cc([C@@H](CNS(=O)(=O)c2ccc3cc[nH]c3c2)N2CCCC2)c2ccncc21` [Compound 82, (S)-N-(2-(1-methyl-1H-pyrrolo[2,3-c]pyridin-3-yl)-2-(pyrrolidin-1-yl)ethyl)-1H-indole-6-sulfonamide]: the inhibition at 25 µM under setting [1] worked out at 16%. The inhibition at 100 µM under setting [2] worked out at 38%.

For `O=S(=O)(NC[C@@H](c1cnc2ccccn12)N1CCCC1)c1ccc2cc[nH]c2c1` [Compound 79, (S)-N-(2-(imidazo[1,2-a]pyridin-3-yl)-2-(pyrrolidin-1-yl)ethyl)-1H-indole-6-sulfonamide], the inhibition at 25 µM under setting [1] was 8%. Also, the inhibition at 100 µM under setting [2] turned out to be 98.7%.

Take `CN(C)C(CNS(=O)(=O)c1ccc2cc[nH]c2c1)c1cn(CC#N)c2ccccc12` (centres unmarked) [Compound 71, N-(2-(1-(cyanomethyl)-1H-indol-3-yl)-2-(dimethylamino)ethyl)-1H-indole-6-sulfonamide]: the inhibition at 25 µM under setting [1] was 63%. Also, under setting [2], the inhibition at 100 µM stood at 99.3%.

In the case of `CN(C)C(CNS(=O)(=O)c1ccc2cc[nH]c2c1)c1c[nH]c2ccccc12` (centres unmarked) [Compound 22, N-(2-(dimethylamino)-2-(1H-indol-3-yl)ethyl)-1H-indole-6-sulfonamide], under setting [1], the inhibition at 25 µM is 57% and the inhibition at 400 µM turned out to be 95.9%. The inhibition at 100 µM under setting [2] amounted to 99%.

With `Cn1nc([C@@H](CNS(=O)(=O)c2ccc3cc[nH]c3c2)N2CCC2)c2ccccc21` [Compound 98, (R)-N-(2-(azetidin-1-yl)-2-(1-methyl-1H-indazol-3-yl)ethyl)-1H-indole-6-sulfonamide], the inhibition at 25 µM under setting [1] came out at 92.9%. The inhibition at 100 µM under setting [2] was determined as 99.1%.

`C[C@H]1CCCN1[C@H](CNS(=O)(=O)c1ccc2cc[nH]c2c1)c1cn(C)c2ccccc12` [Compound 64, N-((S)-2-(1-methyl-1H-indol-3-yl)-2-((S)-2-methylpyrrolidin-1-yl)ethyl)-1H-indole-6-sulfonamide]: under setting [1], the inhibition at 25 µM amounted to 9%. Also, the inhibition at 100 µM under setting [2] stood at 95.4%.

Regarding `Cn1cc(C(CNS(=O)(=O)c2ccc3cc[nH]c3c2)N2CC[C@H](F)C2)c2ccccc21` (stereo partly drawn) [Compound 36, N-(2-((S)-3-fluoropyrrolidin-1-yl)-2-(1-methyl-1H-indol-3-yl)ethyl)-1H-indole-6-sulfonamide], the half-maximal inhibitory concentration (IC50) is at most 10 µM. Besides, the inhibition at 25 µM under setting [1] was 99.7%. In addition, under setting [2], the inhibition at 100 µM came out at 83.9%.

Turning to `CN(C)C(CNS(=O)(=O)c1ccc2cc[nH]c2c1)c1cn(Cc2cncs2)c2ccccc12` (centres unmarked) [Compound 69, N-(2-(dimethylamino)-2-(1-(thiazol-5-ylmethyl)-1H-indol-3-yl)ethyl)-1H-indole-6-sulfonamide], under setting [1], the inhibition at 25 µM stood at 58%. For the same compound, under setting [2], the inhibition at 100 µM stood at 100%.
